Measurements as given in patent US10994018B2, “Long-acting palmitic acid-conjugated GnRH derivative, and pharmaceutical composition containing same” (priority 2017, dated 2021).
Read-outs that look alike come from different tables or passages of the source. Where a SMILES comes first, the peptide text is derived from it. [ ]: non-standard residue; d: D form. The star is where a group is joined. Palmitoyl = CCCCCCCCCCCCCCCC(=O)*

Experiments:
[1] = tested on: prostate cancer cell line DU-145; experiment: Cell death assay (Cell Counting Kit-8) on prostate cancer cells; type: cell-based
Method: GnRH derivatives are clinically applied to the treatment of diseases including breast cancer, prostate cancer, endometriosis, central precocious puberty, and the like. The DU-145 cell line, which is a type of prostate cancer cells, was cultured in T75 flasks containing an adequate amount of RPIM 1640 culture medium (containing 10% FBS, penicillin/streptomycin, and 1% non-essential amino acids) in a sterile incubator having 5% CO2/95% air at 37° C. Cell death assay was performed using the Cell Counting Kit-8 (CCK-8, manufactured by DOJINDO). The […] cells were separated from the T75 flasks by trypsinization treatment and transferred to 96-well plates at a density of 1×10^4 cells/well, followed by incubation for one hour for attachment. Subsequently, the cells were treated with various concentrations of GnRH or GnRH derivatives, and control reagents. Specifically, 1% DMSO was used as a negative control for cell death while 0.1% SDS served as a positive control. After 48 hours of incubation, the existing culture medium was removed, and 100 μL of fresh culture medium and 10 μL of CCK-8 solution were applied to each well. Again, after 48 hours of incubation, the medium solution was replaced by 100 μL of fresh culture medium and 10 μL of CCK-8 solution. The cells were incubated for 4 hours, and then the absorbance was measured at 450 nm to assess cell viability.

[2] = Blood concentration and pharmacokinetics after single subcutaneous administration to rats (LC/MSMS); type: in vivo, female SD rats; conditions: rat
Method: Before administration and at 0.5, 1, 2, and 6 hours and on days 1, 3, 7, 10, 14, 21, and 28 after administration, blood samples were taken from the tail vein of the rats and measured for the blood concentrations of Leuprolide and GnRH derivatives, using LC/MSMS. If the concentration reached about 4 ng/mL at a specific time point, no measurements were further made for the next time point. The measurement results are graphically depicted in FIGS. 4 to 6. Based on the results, pharmacokinetic analysis was carried out by calculating the half-life (t1/2), clearance rate (CL), volume of distribution (Vd), time to reach the maximum concentration following drug administration (Tmax), maximum concentration following drug administration (Cmax), and systemic exposure to drug (AUCt). The analysis results are as follows.

[3] = cited from earlier work
[4] = emulsion; same dose (Peng et al., 2010); cited from earlier work
[5] = female, SD, in vivo, sc, 12.5 mg/kg
[6] = female, SD, in vivo, sc, 12.5 mg/kg, blood concentration, Mean

For `CCNC(=O)[C@@H]1CCCN1C(=O)[C@H](CCCNC(=N)N)NC(=O)[C@H](CC(C)C)NC(=O)[C@@H](CC(C)C)NC(=O)[C@H](Cc1ccc(O)cc1)NC(=O)[C@H](CO)NC(=O)[C@H](Cc1c[nH]c2ccccc12)NC(=O)[C@H](Cc1c[nH]cn1)NC(=O)[C@@H]1CCC(=O)N1` [Leuprolide, pyroGlu-His-Trp-Ser-Tyr-DLeu-Leu-Arg-Pro-NHEt, reference compound], which “cell death rate on prostate cancer cells” value ([1]; DU-145 cells) is on record?
The value was “about 10%”.

And the AUC(0-t) [2, 5]?
Its AUC(0-t) is 1660 ng·h/mL.

And the Cmax [2, 5]?
The Cmax was 1020 ng/mL.

And the Tmax [2, 5]?
The Tmax was 28.8 min.

And the half-life [2, 5]?
Its half-life is 43.2 min.

And the level at 0.5 h [2, 6]?
The level at 0.5 h was 1020 ng/mL.

And the level at 1 h [2, 6]?
The level at 1 h was 769 ng/mL.

And the level at 2 h [2, 6]?
The level at 2 h was 228 ng/mL.

What about the level at 6 h [2, 6] of the same compound?
The level at 6 h was 2.88 ng/mL.

What about the “CL (clearance rate)” value ([2]; in vivo, sc, 12.5 mg/kg) of the same compound?
The value was 0.180 (mg/kg)/(ng/ml)/day.

What about the “Vd (volume of distribution)” value ([2]; in vivo, sc, 12.5 mg/kg) of the same compound?
Its value is 0.007 (mg/kg)/(ng/ml).

For `CCCCCCCCCCCCOS(=O)(=O)[O-].[Na+]` [0.1% SDS, reference compound], which “Viability relative to control (%)” value ([1]; DU-145 cells, positive control at 0.1%) is on record?
Its value is 21.7%.

Which “in vivo half-life in circulating blood” value [3] does the source give for `CC(C)C[C@H](NC(=O)CNC(=O)[C@H](Cc1ccc(O)cc1)NC(=O)[C@H](CO)NC(=O)[C@H](Cc1c[nH]c2ccccc12)NC(=O)[C@H](Cc1cnc[nH]1)NC(=O)[C@@H]1CCC(=O)N1)C(=O)N[C@@H](CCCNC(=N)N)C(=O)N1CCC[C@H]1C(=O)NCC(N)=O` [GnRH] here?
The value was 2 to 4 min.

For `CCCCCCCCCCCCCCCC(=O)N[C@@H](CCC(=O)O)C(=O)N[C@@H](Cc1c[nH]cn1)C(=O)N[C@@H](Cc1c[nH]c2ccccc12)C(=O)N[C@@H](CO)C(=O)N[C@@H](Cc1ccc(O)cc1)C(=O)N[C@H](CC(C)C)C(=O)N[C@@H](CC(C)C)C(=O)N[C@@H](CCCNC(=N)N)C(=O)N1CCC[C@H]1C(=O)NCC` [Derivative P3, Palmitate-Glu-His-Trp-Ser-Tyr-DLeu-Leu-Arg-Pro-NHEt] (Palmitoyl-EHWSY[dL]LRP-NHEt), which “fold greater cytotoxic effects compared to Leuprolide or GnRH” value [1] is on record?
Its value is 7- to 7.5 fold.

Which “anti-inflammatory effect, fold higher than dexamethasone alone” value [4] does the source give for dexamethasone palmitate here?
The value was 5.6 fold.

With `CCCCCCCCCCCCCCCC(=O)N[C@@H](CCC(N)=O)C(=O)N[C@@H](Cc1c[nH]cn1)C(=O)N[C@@H](Cc1c[nH]c2ccccc12)C(=O)N[C@@H](CO)C(=O)N[C@@H](Cc1ccc(O)cc1)C(=O)N[C@H](CC(C)C)C(=O)N[C@@H](CC(C)C)C(=O)N[C@@H](CCCNC(=N)N)C(=O)N1CCC[C@H]1C(=O)NCC` [Derivative P4, Palmitate-Gln-His-Trp-Ser-Tyr-DLeu-Leu-Arg-Pro-NHEt] (Palmitoyl-QHWSY[dL]LRP-NHEt) as the compound, how does the level at 504 h ([2]; female, SD, blood, sc, 12.5 mg/kg, s.c. once 12.5 mg/kg, 21 days) read?
Its level at 504 h is 1.26 ng/mL.

And the “CL (clearance rate)” value ([2]; s.c. once 12.5 mg/kg)?
The value was 0.075 (mg/kg)/(ng/ml)/day.

And the “Vd (volume of distribution)” value ([2]; s.c. once 12.5 mg/kg)?
The value was 0.436 (mg/kg)/(ng/ml).

Which results are given for `CCCCCCCCCCCCCCCC(=O)N[C@@H](CCC(N)=O)C(=O)N[C@@H](Cc1c[nH]cn1)C(=O)N[C@@H](Cc1c[nH]c2ccccc12)C(=O)N[C@@H](CO)C(=O)N[C@@H](Cc1ccc(O)cc1)C(=O)N[C@H](CC(C)C)C(=O)N[C@@H](CC(C)C)C(=O)N[C@@H](CCCNC(=N)N)C(=O)N1CCC[C@H]1C(=O)NCC` [Derivative P2, Palmitate-Gln-His-Trp-Ser-Tyr-DLeu-Leu-Arg-Pro-NHEt] (Palmitoyl-QHWSY[dL]LRP-NHEt)?
fold greater cytotoxic effects compared to Leuprolide or GnRH [1]: 7- to 7.5 fold; level at 0.5 h ([2]; female, SD, blood, sc, 12.5 mg/kg, s.c. once 12.5 mg/kg, 0.5 hr., read-out: blood concentration, Mean): 11.8 ng/mL; level at 1 h ([2]; female, SD, blood, sc, 12.5 mg/kg, s.c. once 12.5 mg/kg, 1 hr., read-out: blood concentration, Mean): 16.9 ng/mL; level at 2 h ([2]; female, SD, blood, sc, 12.5 mg/kg, s.c. once 12.5 mg/kg, 2 hr., read-out: blood concentration, Mean): 29.1 ng/mL; level at 6 h ([2]; female, SD, blood, sc, 12.5 mg/kg, s.c. once 12.5 mg/kg, 6 hr., read-out: blood concentration, Mean): 52.2 ng/mL; level at 24 h ([2]; female, SD, blood, sc, 12.5 mg/kg, s.c. once 12.5 mg/kg, 1 day): 45 ng/mL; level at 168 h ([2]; female, SD, blood, sc, 12.5 mg/kg, s.c. once 12.5 mg/kg, 7 days): 11.9 ng/mL; level at 240 h ([2]; female, SD, blood, sc, 12.5 mg/kg, s.c. once 12.5 mg/kg, 10 days): 8.18 ng/mL; level at 336 h ([2]; female, SD, blood, sc, 12.5 mg/kg, s.c. once 12.5 mg/kg, 14 days): 4.35 ng/mL; CL (clearance rate) ([2]; s.c. once 12.5 mg/kg): 0.051 (mg/kg)/(ng/ml)/day; Vd (volume of distribution) ([2]; s.c. once 12.5 mg/kg): 0.351 (mg/kg)/(ng/ml)
